Holding throughout (format): cell-based
The subject of assay [1] is IIIB strain of HIV-1 (WT). As to the kind of experiment: Anti-HIV-1 activity, protection of infected MT-2 cells. The note with it: for anti-HIV-1 activity in words: wild-type HIV-1, MT-2 cells; for EC50: Human immunodeficiency virus 1, IIIB.
Assay [2] has as its system HIV-1 K103N/Y181C variant strain. As to the kind of experiment: Anti-HIV-1 activity in MT-2 cells, K103N/Y181C variant strain. The settings on record: Human immunodeficiency virus 1, MT2, read-out: K103N/Y181C EC50.
Assay [3] has as its system HIV-1 Y181C variant strain. As to the kind of experiment: Anti-HIV-1 activity in MT-2 cells, Y181C variant strain. The settings on record: Human immunodeficiency virus 1, MT2, read-out: Y181C EC50.
[4] abbreviates: MT2, read-out: Anti-HIV-1 Activity (EC50).

Like-named read-outs stand apart in the source and are kept apart here.

For the molecule `Fc1cccc(F)c1Cc1cnc(Nc2ccc(-c3cccnc3)c(Cl)c2)o1` [Compound 3v], in assay [1], the “anti-HIV-1 activity in words” value is recorded as “good activity”. Further, in assay [2], the EC50 is over 2100 nM.

For the molecule `N#Cc1ccc(Nc2ncc(Cc3c(F)cccc3F)o2)cc1` [Compound 3p], the EC50 in assay [3] was over 2700 nM.

For the molecule `Clc1cccc(Cl)c1Cc1nnc(Nc2ccc(COCc3ccoc3)cc2)o1` [Compound 1g], the EC50 in assay [1] (setting [4]) was over 21000 nM.

As to `[O-][n+]1ccc(OCc2ccc(Nc3ncc(Cc4c(F)cccc4F)o3)cc2Cl)cc1` [Compound 3o], the values for the EC50 in assay [2] and in assay [3] were over 2100 nM and over 2700 nM, respectively.

With `O=C1Nc2ccc(Cl)cc2[C@@](C#CC2CC2)(C(F)(F)F)O1` [evafirenz, reference compound], the EC50 in assay [1] (MT2, read-out: WT EC50) came to 2 nM.

Regarding `Clc1cccc(Cl)c1Cc1nnc(Nc2ccc(COCc3ccccc3)cc2)o1` [Compound 1b], the EC50 in assay [1] (setting [4]) is over 21000 nM. Also, the “anti-HIV-1 activity in words” value in assay [1] is “inactivity”.

Consider `N#Cc1ccc(Nc2ncc(Cc3c(F)cccc3F)o2)cc1Cl` [Compound 3q], for which the EC50 in assay [2] was over 2100 nM.

`Fc1cccc(F)c1Cc1cnc(Nc2ccc(-c3ccncc3)c(Cl)c2)o1` [Compound 3u]: in assay [1], the “anti-HIV-1 activity in words” value is “good activity”.

Turning to `Clc1cccc(Cl)c1Cc1nnc(Nc2ccc(COCc3ccsc3)cc2)o1` [Compound 1h], the EC50 in assay [1] (setting [4]) is over 21000 nM.

For `Cc1ccnc2c1NC(=O)c1cccnc1N2C1CC1` [nevirapine, reference compound], the EC50 in assay [2] is over 2100 nM.

Consider `OCc1ccc(Nc2ncc(Cc3c(F)cccc3F)o2)cc1Cl` [Compound 3m], for which, in assay [1] (3m versus 3i), the “enhancement of WT activity by addition of the chlorine (factor)” value is listed as 15.
